According to patent US12485114B2, “Materials and methods useful to induce cancer cell death via methuosis or autophagy or a combination thereof” (The University of Toledo, priority 2017, dated 2025):

Experiments:
Test in all cases: Morphological assessment of vacuolization
Type in all cases: cell-based
[1] = tested on: U-251 (glioblastoma)
[2] = tested on: BT-20 (triple negative breast cancer)
[3] = tested on: HCT-116 (colon cancer)
Excerpt: The methuophagy inducing activities of BAPT-27 were also prominent in different colon cancer cell lines with different genetic profiles. […] (FIG. 42). However, the vacuoles formation was not prominent in normal epithelial colon cells (CRL-1459). (FIG. 42).

Measured: vacuolization

Cc1[nH]c2ccccc2c1-c1nn2c(-c3ccncc3)nnc2s1 [BAPT-36]
dose dependent vacuolization: all assays above
